In patent US5854029A, “Method for preparing antihypertensive agent” (Calpis Co., Ltd., priority 1996, dated 1998):
Peptide text beside a SMILES is read from it.

What was measured:
[1] = system: WKY rats showing normal blood pressure; assay: One-month continuous oral administration to WKY rats (safety); type: in vivo, rat; settings: 10 mg/kg body weight/day continuously for one month
Excerpt: Foods fermented with Lactobacillus bacteria have been eaten by human beings for a long time, and it is therefore assumed that Tyr-Pro contained in the antihypertensive agent of the present invention has no problem in safety.

[2] = target: Angiotensin converting enzyme (ACE) (Homo sapiens, UniProt P12821); settings: J. Dairy Sci. 78:777-783; cited from earlier work
Sequence of Angiotensin converting enzyme (ACE) (P12821 30-1306, species assumed): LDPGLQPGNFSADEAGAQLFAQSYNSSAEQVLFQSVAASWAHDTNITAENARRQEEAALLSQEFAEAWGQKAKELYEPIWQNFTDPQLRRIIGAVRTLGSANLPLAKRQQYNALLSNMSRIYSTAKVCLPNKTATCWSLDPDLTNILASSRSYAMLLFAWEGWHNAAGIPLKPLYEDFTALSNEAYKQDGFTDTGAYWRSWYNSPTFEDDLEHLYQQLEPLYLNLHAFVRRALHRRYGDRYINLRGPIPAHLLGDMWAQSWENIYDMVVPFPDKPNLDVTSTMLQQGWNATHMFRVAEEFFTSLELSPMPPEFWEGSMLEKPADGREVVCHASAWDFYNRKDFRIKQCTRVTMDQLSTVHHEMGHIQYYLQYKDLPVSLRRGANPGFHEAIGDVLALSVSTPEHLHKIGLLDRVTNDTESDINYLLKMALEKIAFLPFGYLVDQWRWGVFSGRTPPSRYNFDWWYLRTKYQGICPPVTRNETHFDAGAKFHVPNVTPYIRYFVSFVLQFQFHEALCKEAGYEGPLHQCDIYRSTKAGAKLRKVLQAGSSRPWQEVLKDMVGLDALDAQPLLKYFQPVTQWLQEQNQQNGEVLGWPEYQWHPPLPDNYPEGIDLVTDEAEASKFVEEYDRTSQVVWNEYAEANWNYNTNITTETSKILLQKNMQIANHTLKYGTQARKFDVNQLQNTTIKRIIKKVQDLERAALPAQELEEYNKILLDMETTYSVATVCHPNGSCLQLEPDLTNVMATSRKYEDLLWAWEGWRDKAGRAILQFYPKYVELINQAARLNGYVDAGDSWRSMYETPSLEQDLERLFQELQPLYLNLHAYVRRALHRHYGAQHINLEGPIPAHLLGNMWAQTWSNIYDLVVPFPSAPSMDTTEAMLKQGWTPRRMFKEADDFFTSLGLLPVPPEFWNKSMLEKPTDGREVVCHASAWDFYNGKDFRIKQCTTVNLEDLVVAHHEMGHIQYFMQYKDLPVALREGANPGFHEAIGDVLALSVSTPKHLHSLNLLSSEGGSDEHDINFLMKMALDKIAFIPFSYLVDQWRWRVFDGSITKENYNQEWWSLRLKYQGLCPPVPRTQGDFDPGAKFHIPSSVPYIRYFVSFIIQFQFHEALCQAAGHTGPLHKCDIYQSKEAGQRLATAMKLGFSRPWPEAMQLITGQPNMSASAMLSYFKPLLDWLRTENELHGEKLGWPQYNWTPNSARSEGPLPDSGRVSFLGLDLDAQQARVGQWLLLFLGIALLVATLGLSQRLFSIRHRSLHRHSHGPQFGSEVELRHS

[3] = system: spontaneously hypertensive rats (SHR); settings: J. Dairy Sci. 78:1253-1257; cited from earlier work

Compound | Abnormality in behavior, appearance, blood pressure and autopsy [1] | ACE inhibiting activity (result in words) [2] | Antihypertensive effect in SHR (result in words) [3]
N[C@@H](Cc1ccc(O)cc1)C(=O)N1CCC[C@H]1C(=O)O [Tyr-Pro] (H-Tyr-Pro-OH) | no abnormality was found |  | 
Ile-Pro-Pro |  | strong ACE inhibiting activity | strong antihypertensive effect
Val-Pro-Pro |  | strong ACE inhibiting activity | strong antihypertensive effect
